Laboratory results reported in patent publication US7674783B2, “Estrogen beta receptor agonists to prevent or reduce the severity of cardiovascular disease” (Dimera Inc., priority 2002, dated 2010).
Entries after “also recorded” stand apart in the source; their conditions may differ.

Assays:
rhesus coronary VMC = experiment: Ca2+ responses to S+U in rhesus coronary VMC after in vitro treatment (Fluo3 imaging); format: cell-based, rhesus monkey; conditions: for Ca2+ response to S+U (protected state vs control): FIG. 6, p<0.05; for Ca2+ signal in response to 15 sec S+U (protection): FIG. 4
Excerpt: (§1) Hearts or major blood vessels are removed at necropsy from rhesus monkeys sacrificed for other purposes and are immediately immersed in cold ionic solution for mammals (ISM2). ISM2 contains, in mM, 100 NaCl, 16 NaHCO3, 0.5 NaH2PO4, 4.7 KCl, 1.8 CaCl2, 0.4 MgCl2, 0.4 HgSO4, 50 HEPES, and 5.5 dextrose, at pH 7-3 to 7.4. Single cells are enzymatically dissociated in a multi-step process for hearts and coronary arteries are dissected from the anterior and posterior walls of the ventricles and the atrioventricular sulcus. The coronary artery segments are cleaned and then cut into small pieces and rinsed in culture solution for mammals—5th generation (CV5M) for 10 min, followed by potassium glutamate (KG) solution for 10 min, both at room temperature. CV5M contains 4.0 mM L-glutamine, 100 μg/mL ciprofloxacin, 50 mM HEPES (pH 7.3), and 16 mM NaHCO3 dissolved in 90% MEM-Earles's salts and 10% horse serum. KG solution contains, in mM, 140 K-glutamate, 50 HEPES (pH 7.3), 16 NaH2PO4, and 16.5 dextrose.
The coronary artery tissue is then incubated at 37° C. for 60 min in an enzyme solution (430 U/ml collagenase and 2 U/ml elastase with 2 mg/ml bovine serum albumin and 100 μM Ca^2+ in 10 ml of 37° C. KG) with slow stirring. The supernatant is transferred to 25 ml of 4° C. KG holding solution with 10% horse serum (KG-H), and 10 ml of enzyme solution is added to the remaining un-dispersed tissue fragments. This enzymatic treatment is repeated three times.
Enzyme exposure is minimized by cold and added serum. Holding solutions (with 10% serum) containing the dispersed cells are centrifuged at 200 G and 4° C. for 5 min. After the supernatant is removed, the cells are re-suspended in 5 ml of 37° C. CV5M and incubated for 1 hr at 37° C. to permit preferential attachment of fibroblasts. The remaining cells in suspension are counted and concentrated to ˜100,000 living cells/ml by centrifugation, and re-suspended in CV5M at 37° C. VMC are then seeded on clean glass coverslips in culture plates, and maintained undisturbed in 95% air-5% CO2 and 95% humidity at 37° C. for attachment for 12 hr, and then flooded with CV5M. Cells from the suspension are also similarly seeded in growth optimized culture flasks and flooded with CV5M after 12 hr.
Media changes to a 1% medium (CV5MM, identical to CV5M except the concentration of horse serum is 1 %) are used to reduce growth factors after 2-4 days. Strict pH control (7.3-7.4) at each temperature (4° and 37° C.) is maintained by recognition and allowance for the temperature coefficient of the HEPES buffer. Subculture of cells is performed by brief trypsinization, followed by neutralization of trypsin, wash in media, reconstitution of cell suspension in medium with 1% serum, and plating onto culture plates and coverslips. For Ca^2+ imaging experiments, VMC from primary culture are used.
Imaging of intracellular Ca^2+ changes is performed using the fluorescent indicator, Fluo3. Glass coverslips with attached VMC are placed into 300 μL LF 922 laminar flow chambers on the stage of a Zeiss Axiovert 200M microscope, and suffused with ISM2 continuously at 1 mL/min. Live cell fluorescent data acquisition is performed with a photon counting Hamamatsu VIM camera in conjunction with image processing software. Briefly, VMC are loaded with 3 μM Fluo3 for 10 min (stopped flow), then washed (continuously suffused) with ISM2 for 5 min. VMC are exposed for stimulation to a combination of serotonin and U46619, a stabile thromboxane A2 mimetic. This combination, containing serotonin at a concentration of 10 μM and U46619 at a concentration of 100 nM, is referred to as S+U. The VMC are exposed to the S+U combination for 15 sec (stopped flow), and then continuously suffused with ISM2.

[1] = target: T1, estrogen receptor beta (ERβ/D22 interaction) (Homo sapiens, UniProt Q92731); experiment: ERβ coactivator fluorescence polarization assay; format: biochemical; conditions: 0.038 nM to 1240 nM, triplicate, FIG. 3
T1 construct: purchased PanVera/Invitrogen (Invitrogen Corp., Carlsbad, Calif.)
Protocol: An estrogen receptor beta coactivator fluorescence polarization assay was performed by PanVera/Invitrogen discovery screening applying the company's ERβ Coactivator Assay Kit (Invitrogen Corp., Carlsbad, Calif.) using fluorescence polarization with known estrogen receptor ligands (estradiol, ICI182,780, tamoxifen, and OH-tamoxifen) and test compounds (estriol, 3βAdiol, and epiestriol).
Data on the X-axis of the graph of FIG. 3 are represented as log of concentrations from 0.038 nM to 1240 nM tested for each of the perspective ligands. The ligand concentration that produces a half-maximal increase or decrease in polarization equals the ligand EC50 for the ERβ/D22 interaction. The ordinate Y-axis, mP, indicates fluorescence polarization units. Increase in polarization indicates agonist activity. Conversely, a decrease in polarization indicates antagonist activity. The date represent mean +/− standard deviation of the polarization values from the assay performed in triplicate.

[2] = test system: coronary arteries of ovariectomized rhesus monkeys; experiment: Drug-induced (serotonin + U46619) coronary vasospasm in ovariectomized rhesus monkeys, coronary angiography; format: in vivo, Macaca mulatta
Protocol: Six adult ovariectomized (OVX) female rhesus monkeys (Macaca mulatta) were employed in the studies described below. None of the monkeys had been exposed to high cholesterol diets and all were later verified to lack evidence of cardiovascular disease. […] The monkeys were entered into the study no less than 3 months after ovariectomy.
Angiography after overnight fasting began with preanesthesia with ketamine (10 mg/kg body weight intramuscular), intubation with an endotracheal tube and a light surgical plane of anesthesia with isoflurane (induced at 1.5% to 3% maintained at 0.75% to 1.25%), vaporized with 33% nitrous oxide and 67% oxygen, or with 100% oxygen. Bilateral femoral intraarterial 3F catheters allowed for coronary catheterization and continuous recording of systemic arterial blood pressure and heart rate, which were maintained close to the initial anesthetic value for each monkey. […] A heating pad assisted in maintenance of a body temperature decrease ≦2° C. of preanesthesia body temperature (monitored by rectal thermometer). An electrocardiogram (ECG) recorded on a Gould eight-channel recorder, cutaneous arterial oxygen saturation, respiratory rate and end-tidal CO2 were also monitored.
Entire experiments were recorded on videotape (with episodic fluoroscopic imaging and continuous voice annotation) to permit computerized quantitative coronary angiography. […]
Placement of the 3F catheter was adjusted to provide sufficient filling with radio-opaque contrast medium, limited reflux and isolation of a branch of the coronary arterial tree. […] Fluoroscopic images were recorded on film using an OEC model 9800 digital x-ray system with fluoroscopic C-arm, digitally recorded, and evaluated in subsequent analysis. All procedures including a brief 0.2 ml injection of Hexabrix for optimal quantitative angiography were recorded on videotape for subsequent computer analysis. […]
After 4 weeks of daily treatment with 0.2 mg/kg of the estriol topical cream, the monkeys were studied by coronary catheterization, and reactivity was assessed by injection of serotonin (100 μM) and U46619 (1 μM). […]

[3] = Estriol absorbed, urine level after topical estriol cream; format: in vivo, Macaca mulatta; conditions: OVX rhesus monkeys, daily 0.3% estriol topical cream, urine collected just prior to catheterization, n = 5
Protocol: Repeat slow intracoronary infusions of 1 ml over 30 seconds of the combination of serotonin and U46619 in this 100:1 molar ratio were used, adjusted for body weight (0.2 mg/kg) to produce coronary blood levels of 6.7 μM serotonin and 67 nM U46619. The levels of these two components were based on calculated coronary flow dilution.

[4] = test system: VMC isolated from OVX monkeys; experiment: Ca2+ response to S+U of cultured VMC isolated from estriol-treated OVX monkeys (Fluo3 imaging); format: cell-based, rhesus monkey; conditions: VMC from OVX monkeys treated 4 weeks with daily transdermal estriol, cultured 2 weeks
Excerpt: as §1, with “dextrose. […]” for “dextrose.”
Enzyme exposure is minimized by cold and added serum. […] The remaining cells in suspension are counted and concentrated to ˜100,000 living cells/ml by centrifugation, and re-suspended in CV5M at 37° C. […]

T1 sequence (Q92731 whole entry): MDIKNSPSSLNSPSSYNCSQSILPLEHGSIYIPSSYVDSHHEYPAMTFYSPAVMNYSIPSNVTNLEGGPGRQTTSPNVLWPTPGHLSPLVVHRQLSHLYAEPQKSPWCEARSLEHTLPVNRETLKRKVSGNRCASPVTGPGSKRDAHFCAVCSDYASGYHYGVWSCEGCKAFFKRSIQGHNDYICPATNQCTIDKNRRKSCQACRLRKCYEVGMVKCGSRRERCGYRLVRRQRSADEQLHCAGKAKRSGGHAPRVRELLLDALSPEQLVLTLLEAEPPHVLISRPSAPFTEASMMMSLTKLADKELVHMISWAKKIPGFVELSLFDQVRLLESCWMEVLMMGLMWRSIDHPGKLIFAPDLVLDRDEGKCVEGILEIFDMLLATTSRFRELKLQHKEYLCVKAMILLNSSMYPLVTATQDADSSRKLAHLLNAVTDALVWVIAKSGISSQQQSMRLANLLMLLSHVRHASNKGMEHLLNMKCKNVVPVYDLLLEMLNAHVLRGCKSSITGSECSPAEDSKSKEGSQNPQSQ

## CC[C@@H]1Cc2cc(O)ccc2C2=C1c1ccc(O)cc1C[C@H]2CC [RRTHC, RR-tetrahydrochrysene]
Rhesus coronary VMC; 1 to 6 hour treatment with RRTHC, FIG. 7B
  Ca2+ signal in response to 15 sec S+U (exaggerated hyperreactive state): not
Rhesus coronary VMC; 72 hours in RRTHC in vitro, FIG. 7B, p<0.05
  Ca2+ signal in response to 15 sec S+U: exaggerated hyperreactive state beyond control
Rhesus coronary VMC; RRTHC 30 μM, 3 hours prior to and during 3βAdiol, FIG. 7A, p<0.05
  Effect on protection by 72 hour 300 pM 3βAdiol (Ca2+ signal after S+U): blocked

## C[C@]12CC[C@H](O)C[C@@H]1CC[C@@H]1[C@@H]2CC[C@]2(C)[C@@H](O)CC[C@@H]12 [3βAdiol, 5α-androstan-3β,17β-diol]
[1]
  Estrogen beta receptor agonist activity (increase in polarization): beta receptor activity similar to that of estriol and estradiol
Rhesus coronary VMC; 300 pM 3βAdiol vs 10 nM genistein and 1 nM DPN, FIG. 6
  Protection relative to genistein and DPN: superior
Rhesus coronary VMC; 300 pM
  Ca2+ response to S+U (protected state vs control): produced a protected state
Rhesus coronary VMC; 72 hours treatment at 300 pM
  Ca2+ signal in response to 15 sec S+U (protection): protection with estriol was found to be weaker than the estrogen beta receptor selective agonists 3βAdiol and epiestriol
Rhesus coronary VMC; concentrations greater than 30 pM (range tested 30 pM to 3 nM), FIG. 5
  Ca2+ response to S+U: a protected state was established

## C[C@]12CC[C@@H]3c4ccc(O)cc4CC[C@H]3[C@@H]1C[C@H](O)[C@@H]2O [epiestriol]
[1]
  Estrogen beta receptor agonist activity (increase in polarization): beta receptor activity similar to that of estriol and estradiol
Rhesus coronary VMC; 72 hours treatment at 1 nM
  Ca2+ signal in response to 15 sec S+U (protection): protection with estriol was found to be weaker than the estrogen beta receptor selective agonists 3βAdiol and epiestriol

## C[C@]12CC[C@@H]3c4ccc(O)cc4CC[C@H]3[C@@H]1C[C@@H](O)[C@@H]2O [estriol]
[2]; OVX rhesus monkeys, 4 weeks daily 0.3% estriol topical cream, intracoronary serotonin + U46619, criteria <33% of control diameter for >5 minutes
  Vasospasm criteria met (incidence): 0/6
[2]; OVX rhesus monkeys, 4 weeks daily estriol topical cream, serotonin + U46619 challenge
  Protection against coronary vasospasm: protected against vasospasm; also recorded: protection against coronary vasospasm by administration of estriol was categorical
[2]; estriol cream treated OVX monkeys vs untreated OVX, FIG. 1, p<0.05
  Minimum diameter of coronary arteries following S+U provocative stimulus: indicative of protection against provoked vasospasm
[3]
  E3 absorbed, urine (total): ***2412 +/− 316 (n = 5) ng/ml
[4]; 15 sec S+U stimulus, FIG. 2
  Ca2+ response state after S+U challenge: protected state
[4]; declining after 2 min to nearly baseline
  Duration of Ca2+ spike after S+U challenge: 10 to 30 s
[1]
  Estrogen beta receptor agonist activity (increase in polarization): estrogen beta agonists
Rhesus coronary VMC; 72 hours treatment at 1 nM
  Ca2+ signal in response to 15 sec S+U (protection): protective
Rhesus coronary VMC; 72 hours, 1 nM estriol vs 300 pM 3βAdiol and 1 nM epiestriol, FIG. 4, p<0.05
  Protection relative to the other agonists: weaker

## N#CC(Cc1ccc(O)cc1)c1ccc(O)cc1 (stereo not drawn) [DPN, diarylpropionitrile]
Rhesus coronary VMC; 1 nM
  Ca2+ response to S+U (protected state vs control): produced a protected state

## O=c1c(-c2ccc(O)cc2)coc2cc(O)cc(O)c12 [genistein]
Rhesus coronary VMC; 10 nM
  Ca2+ response to S+U (protected state vs control): produced a protected state
